Where two headings read alike, the source gives them in different places.
How the values were obtained:
[1] = system: guinea pig hearts isolated and perfused by the Langendorff method; experiment: left-ventricular pressure and heart rate in isolated perfused Langendorff hearts; conditions: for Emax: Cavia porcellus; for EC20 left-ventricular pressure: dose which leads to a 20% increase in left ventricular pressure
Excerpt: After the animals have been sacrificed by a blow to the neck and exsanguination through the carotid arteries, the thoracic cavity is opened, and the aorta is exposed and looped up with a thread. A cannula, which is attached by tubing to the apparatus from which the nutrient solution slowly drops, is introduced in the direction of the heart and the heart is, quickly after removal from the thorax, connected to the perfusion apparatus. A balloon probe, connected to a Statham pressure sensor, is advanced through a cut through the left atrium into the left ventricle, and is provided with an initial pressure of 40 mm Hg. […] The nutrient solution flowing freely from the coronary sinus into the right atrium is measured with a flow […]) and, together with the change in the left-ventricular pressure and the heart rate determined from this, is recorded on a Watanabe recorder. The substances are administered in a volume of 0.1 ml of nutrient solution, in the dosage indicated in Tab.

[2] = system: left ventricles of cats; experiment: heart function dP/dtmax, left ventricle of anesthetized cats; assay type: in vivo, cat; conditions: for increase in the heart rate or end-diastolic ventricular pressure / positive inotropic effects (increase in dP/dtmax) compared with comparison compounds: result in words
Procedure: The effect of the substances on the contractility of the heart in cats was tested on animals (.male., .female., 3.2 to 5.2 kg) under anesthesia with chloralose/urethane. The change in pressure in the left ventricle of the heart was measured with a tip catheter introduced through the right carotid artery, the R peak in the ECG (bipolar chest lead) initiating a signal to record the end-diastolic pressure; in addition, the maximum rate of pressure rise (dP/dtmax) was determined from the change in pressure. The heart rate was derived from the pressure waves. The test substances were administered intravenously. 2-6 animals were used per measurement, and the arithmetic mean was calculated from the results.

[3] = system: chain of tracheal rings of guinea pigs; experiment: relaxing action on chain of tracheal rings in vitro (bronchospasmolytic action); parameters: species or system guinea pig; conditions: for EC50: Cavia porcellus, Column A, negative logarithm of EC50 in mol/l, 50% of maximum relaxation by (-)isoprenaline, read-out: -lg[EC50] trachea (converted); for [EC40 pot.] left atrium / [EC50] trachea: Column C, measure of organ-selective activity; for [EC50] theophylline / [EC50] substance: Column D, trachea
Procedure: The relaxing action of the 6-aryl-3[2H]pyridazinones I has been tested in vitro on a chain of tracheal rings (Tr.) of guinea pigs. […] The quotient of [EC40pot. ]left atrium and [ED50 ]trachea serves as a measure of the organ-selective activity.
The bronchospasmolytic action of the compounds on the chain of tracheal rings of the guinea pig was tested in vitro:
Four parallel chains of tracheal rings, each consisting of 6 individual rings, of guinea pigs(.male. and .female., 430-600 g) in an organ bath [5 ml, Krebs-Henseleit solution with added phentolamine (10^-5 mol/l), 37° C., initial tension of the organs 2 g, gassing with carbogen] develop a stable, spontaneous tonic contraction after about 20 to 30 minutes. […] Over a period of 20 to 30 minutes, a complete dose/action curve of the test substance is thus obtained. The particular relaxation is expressed as a percentage fraction of the maximum relaxation which can be achieved by administration of (-)isoprenaline (10^-6 mol/1). The concentration of the test substance which causes 50% of the maximum relaxation which can be achieved, expressed by the negative logarithm of the EC50 mol/l: -lg[EC50 ]is a measure of the bronchodilator activity.

[4] = system: electrically stimulated left atrium of rats; experiment: positive inotropic action on electrically stimulated left atrium in vitro; parameters: species or system rat; conditions: for [EC40 pot.] theophylline / [EC40 pot.] substance: Column E, left atrium; for EC40: Rattus norvegicus, Column B, negative logarithm of EC40pot in mol/l, 40% increase in contraction force, read-out: -lg[EC40 pot.] left atrium (converted)
Procedure: The positive inotropic action was tested in vitro on the electrically stimulated left atrium of rats (l.a.).
The positive inotropic action of the compounds was tested in vitro on the electrically stimulated left atrium of rats.
Isometric contractions (HSE force sensor K-30; Watanabe recorder, Linear Corder Mark 5) of isolated, left atria from rats (.male., 250-300 g) in an organ bath (10 ml, Tyrode nutrient solution, 31° C., gassing with carbogen, initial tension of the organs 0.25 g) under electrical stimulation (HSE stimulator, 7 V, 3 ms, 2 Hz) were recorded. […] The particular increase in the contraction force is expressed in % of the starting value before administration of the substance. The concentration of the test substance which potentiates the contraction force of the atrium by 40% compared with the starting value [EC40pot. mol/l], expressed by the negative logarithm of the [EC40pot mol/l]: -lg[EC40pot ] serves as a measure of the cardiotonic activity.

[5] = system: right ventricle of guinea pigs; experiment: heart function dP/dtmax, right ventricle of anesthetized guinea pigs; assay type: in vivo, guinea pig
Procedure: The effect of the substances on the contractility of the heart of guinea pigs is tested on animals (.male., 400 to 1000 g) under urethane anesthesia. The change in pressure in the right ventricle of the heart is measured with a tip catheter introduced through the right jugular vein and the maximum rate of pressure rise (dP/dtmax) is determined from this. The heart rate is derived from the pressure waves. […] The test substances were administered intravenously. 5-7 animals were used for each measurement, and the arithmetic mean was calculated from the results.

[6] = after 1000 nMol, read-out: Emax left-ventricular pressure
[7] = at Emax, 1000 nMol, read-out: Percentage increase in heart rate at Emax

Row | SMILES | Emax [1, 6] [%] | Emax [1, 7] [%] | Percentage increase in heart rate at EC20 [1] [%] | EC20 left-ventricular pressure [1] [nmol] | Percentage change in dP/dtmax ([2]; 0.3 μmol/kg i.v., 3 min) [%] | Percentage change in dP/dtmax ([2]; 0.3 μmol/kg i.v., 10 min) [%] | Percentage change in dP/dtmax ([2]; 0.3 μmol/kg i.v., 30 min) [%] | Percentage change in dP/dtmax ([2]; 0.3 μmol/kg i.v., 60 min) [%] | Percentage change in dP/dtmax ([2]; 1 μmol/kg i.v., 3 min) [%] | Percentage change in dP/dtmax ([2]; 1 μmol/kg i.v., 10 min) [%] | Percentage change in dP/dtmax ([2]; 1 μmol/kg i.v., 30 min) [%] | Percentage change in dP/dtmax ([2]; 1 μmol/kg i.v., 60 min) [%] | increase in the heart rate or end-diastolic ventricular pressure [2] | positive inotropic effects (increase in dP/dtmax) compared with comparison compounds [2] | EC50 [3] [µM] | [EC40 pot.] left atrium / [EC50] trachea [3] | [EC50] theophylline / [EC50] substance [3] | [EC40 pot.] theophylline / [EC40 pot.] substance [4] | EC40 [4] [µM] | further results
1 | C=CCOc1ccc(-c2ccc(=O)[nH]n2)cc1OC [Serial No. 5, 6-(4-allyloxy-3-methoxyphenyl)-3[2H]pyridazinone] | 185 | 9 | 3 | 14 | 27 | 12 | 11 | 13 | 64 | 25 | 15 | 20 | without leading to any considerable increase in the heart rate or end-diastolic ventricular pressure | stronger positive inotropic effects | 1.51 | 4.4 | 85.2 | 63.1 | 6.61 | –
2 | CCC(C)Oc1ccc(-c2ccc(=O)[nH]n2)cc1OC (stereo not shown) [Serial No. 7, 6-(4-sec.-butoxy-3-methoxyphenyl)-3[2H]pyridazinone] | 86 | 23 | 3 | 13 | 36 | 4 | 1 | 2 | 90 | 25 | 11 | 11 | without leading to any considerable increase in the heart rate or end-diastolic ventricular pressure | stronger positive inotropic effects | 1.32 | 2.6 | 102 | 120 | 3.47 | –
3 | COc1ccc(-c2ccc(=S)[nH]n2)cc1OCC(C)C [compound 18] | – | – | – | – | – | – | – | – | – | – | – | – | – | – | 4.07 | 0.6 | 33.1 | 166 | 1.58 | –
4 | CCOc1ccc(-c2ccc(=O)[nH]n2)cc1OC [Serial No. 4, 6-(4-ethoxy-3-methoxyphenyl)-3[2H]pyridazinone] | – | – | 6 | 22 | – | – | – | – | – | – | – | – | – | – | 1.32 | 2.9 | 102 | 109 | 3.8 | Percentage change in dP/dtmax ([5]; 0.3 μmol/kg i.v., 0-10 min (Maximum)): 39%; Percentage change in dP/dtmax ([5]; 0.3 μmol/kg i.v., 10 min): 12%; Percentage change in dP/dtmax ([5]; 0.3 μmol/kg i.v., 30 min): 23%; Percentage change in dP/dtmax ([5]; 1 μmol/kg i.v., 0-10 min (Maximum)): 140%; Percentage change in dP/dtmax ([5]; 1 μmol/kg i.v., 10 min): 26%; Percentage change in dP/dtmax ([5]; 1 μmol/kg i.v., 30 min): 56%; Percentage change in dP/dtmax ([5]; 3 μmol/kg i.v., 0-10 min (Maximum)): 95%; Percentage change in dP/dtmax ([5]; 3 μmol/kg i.v., 10 min): 66%; Percentage change in dP/dtmax ([5]; 3 μmol/kg i.v., 30 min): 59%; Emax ([1]; after 300 nMol, read-out: Emax left-ventricular pressure): 58%; Emax ([1]; at Emax, 300 nMol, read-out: Percentage increase in heart rate at Emax): 27%

Reference: patent US4707481A, “Pyridazinones, their preparation and use, and bronchospasmolytic medicaments containing pyridazinones” (BYK Gulden Lomberg Chemische Fabrik GmbH, priority 1983, dated 1987)
